Here are results for five molecules from patent US8293734B2, “Nitroimidazooxazine and nitroimidazooxazole analogues and their uses” (priority 2009, dated 2012).

Broadly, the IC50 is the concentration needed to halve the response being measured. What is called melting point is the temperature, or range, at which the solid turns liquid. The pIC50 is −log10 of the IC50, conventionally taken in molar units. A word on the MIC: it is the lowest concentration found to suppress growth. Higher therefore signals a need for much substance.

Series [1] relates to Trypanosoma cruzi amastigotes (Tulahuen C2C4 strain). In words: Trypanosoma cruzi assay in infected L-6 cells. The series is classed as cell-based. The following applies: L6, 96 h incubation, read-out: IC50 T. cruzi. The protocol: (§1) (c) Antiprotozoal screening. Compounds were evaluated for their activities against both Trypanosoma cruzi amastigotes and Leishmania donovani amastigotes (free or encapsulated in macrophages), according to the following protocols:
(i) Trypanosoma cruzi assay. L-6 cells (2×10^3) in medium (100 μL of RPMI 1640 supplemented with 2 mM L-glutamine plus 10% heat inactivated fetal calf serum) were seeded in 96-well microtitre plates (Costar™) and incubated at 37° C. (5% CO2) for 1d. A suspension (50 μL) of Trypanosoma cruzi trypomastigotes (5×10^3 of Tulahuen C2C4 strain, containing the β-galactosidase gene) was added, and the cells were incubated at 37° C. (5% CO2) for a further 48 h to establish the infection. The medium was removed and replaced by fresh medium and the infected cells were then incubated at 37° C. (5% CO2) for 96 h in either medium alone or in the presence of serial (3-fold) dilutions of test compounds (initially prepared as 10 mg/mL stock solutions in DMSO and diluted into medium). Benznidazole was employed as a standard in each assay. Following incubation, chlorophenol red glycoside (100 mM) in 0.1% Nonidet P40/PBS (50 μL) was added, and (after 6 h) the absorbance at 540 nm was measured and used to calculate the IC50 values.

Series [2] can be described thus: Stability to mouse liver microsomes. Format: in vitro ADME, CD-1 mouse. The settings on record: 1 μM compound, 60 min, 37° C., 0.5 mg/mL protein. The protocol: (§2) (a) Stability of the compounds to human and mouse microsomes. Test compounds (1 μM) were incubated at 37° C. with pooled human or CD-1 mouse liver microsome preparations (0.5 mg/mL final protein concentration) and an NADPH regenerating system (MgCl2, 3.3 mM; G6P, 3.3 mM; G6PD, 0.4 U/mL; NADP+, 1.3 mM) in phosphate buffer (75 mM, pH 7.4), with a final volume of 200 μL. The compounds were dissolved in DMSO such that the final DMSO concentration was 0.5%. Reactions were stopped at 0 and 60 min by the addition of MeCN (100 μL) containing 0.2 μM metoprolol as an internal standard. Samples were diluted 10× and centrifuged prior to analysis by LC-MS/MS using electrospray ionization and SRM monitoring using a gradient LC method. LC peak areas were integrated and expressed as analyte/IS peak area ratios (PAR), and a mean value for each time point was calculated from the duplicates. The percent remaining value was calculated as: % remaining=100×(Mean PART60/Mean PART0).
(In general: Liver microsomes are a subcellular fraction often used to study metabolism.)

Series [3] concerns Axenically grown L. donovani amastigotes (MHOM-ET-67/L82). In words: Axenic Leishmania donovani assay. Format: cell-based. The settings on record: 70 h incubation, read-out: IC50 L. donovani axen. The protocol: as §1
(ii) Axenic Leishmania donovani assay. Axenically grown L. donovani amastigotes (MHOM-ET-67/L82) from a healthy culture in log phase were seeded at a density of 1×10^6/mL medium (SM, pH 5.4 plus 10% heat inactivated fetal calf serum) in 96-well microtitre plates (Costar™) and incubated at 37° C. (5% CO2) for 70 h in either medium alone or in the presence of serial (3-fold) dilutions of test compounds (initially prepared as 10 mg/mL stock solutions in DMSO and diluted into medium). Miltefosin was employed as a standard in each assay. After incubation, Resazurin fluorescent dye was added to each well, and incubation was continued for an additional 2 h. The IC50 values were determined from measurements of the fluorescence data.

Series [4] has as its system L. donovani amastigotes (MHOM-ET-67/L82) in mouse macrophages. In words: Leishmania donovani infected macrophage assay. Format: cell-based. The following applies: 96 h incubation, read-out: IC50 L. donovani macro. The protocol: as §1
(iii) Leishmania donovani infected macrophage assay. Freshly harvested mouse macrophages in medium (RPMI 1640 plus 10% heat inactivated fetal calf serum) were incubated at 37° C. (5% CO2) for 24 h and then infected (1:3 macrophages to amastigotes) with an axenic L. donovani amastigote culture (MHOM-ET-67/L82) in medium (SM, pH 5.4 plus 10% heat inactivated fetal calf serum). The infected macrophages were seeded at a density of 1.2×10^6/mL (by diluting in RPMI+10% FCS) in 16-well slides (Lab-tek™) and incubated at 37° C. (5% CO2) for 24 h. The medium was removed and replaced by fresh medium (RPMI 1640+10% FCS), and this was repeated following mixing. The infected macrophages were then incubated at 37° C. (5% CO2) for 96 h in either medium alone or in the presence of serial (3-fold) dilutions of test compounds (initially prepared as 10 mg/mL stock solutions in DMSO and diluted into medium). Miltefosin was employed as a standard in each assay. […], the slides were fixed (5 min in 100% MeOH) and stained (10% Giemsa, 10 min). The ratio of infected to uninfected macrophages was determined by microscopic examination, and the IC50 values were then calculated by linear regression analysis.

Series [5] in a line: Stability to human liver microsomes. The series is classed as in vitro ADME. The following applies: 1 μM compound, 60 min, 37° C., 0.5 mg/mL protein. The protocol: as §2
Another series relates to VERO cells (CCL-81). In words: Mammalian cell cytotoxicity assay (tetrazolium dye). The series is classed as cell-based. The settings on record: Chlorocebus sabaeus, 72 h exposure, read-out: IC50 VERO. The protocol: (b) Mammalian cell cytotoxicity assay. This was assessed against VERO cells (CCL-81, American Type Culture Collection) in a 72 h exposure, using a tetrazolium dye assay (Falzari et al., 2005).

The test system of another series is M. tuberculosis Erdman. In words: In vivo mouse acute TB infection assay. More on the design: species or system BALB/c mice. The following applies: for In vivo efficacy vs PA-824: 100 mg/kg orally daily 5 days a week for 3 weeks, ratio of average lung CFU reduction to that of PA-824.
The test system of series [6] is replicating Mycobacterium tuberculosis. In words: MABA microplate Alamar blue assay, MIC (aerobic). The series is classed as cell-based. The settings on record: 192 h. A general note: Resazurin is reduced to fluorescent resorufin, in cell work by metabolically active cells.
Series [7] relates to M. tuberculosis bacteria in the non-replicating state. Nature of the series: LORA low-oxygen-recovery assay, MIC (anaerobic). The series is classed as cell-based. The settings on record: Mycobacterium tuberculosis, 264 h; 11 day luminescence-based low-oxygen-recovery assay.

Structures are written as SMILES. pIC50: −log10 of the molar value. Values after ≈ are worked out from the molar mass of the structure shown.

On to `O=[N+]([O-])c1cn2c(n1)OCC(COCc1ccc(OC(F)(F)F)cc1)C2` (centres unmarked) [Compound 72, 2-nitro-6-({[4-(trifluoromethoxy)benzyl]oxy}methyl)-6,7-dihydro-5H-imidazo[2,1-b][1,3]oxazine], for which the melting point is 92 to 93 °C. For the same molecule, the IC50 in [1] was 0.62 µg/mL (≈ 1.66 µM). Also, in [2], the “Microsomes (% remaining) Mouse” value was determined as 41%. In addition, the IC50 in series [3] stood at 0.089 µg/mL (≈ 0.238 µM). In addition, the IC50 in series [4] amounted to 0.55 µg/mL (≈ 1.47 µM). Also, the “Microsomes (% remaining) Human” value in series [5] is recorded as 71%. The pIC50 with VERO cells (CCL-81) is 4.34.
Take `O=[N+]([O-])c1cn2c(n1)OC[C@@H](OCc1ccc(OC(F)(F)F)cc1)C2` [PA-824, reference compound]: the “In vivo efficacy vs PA-824” value in the series with M. tuberculosis Erdman was 1.00. For the same molecule, the “log reductions in CFU” value in the series on M. tuberculosis Erdman (lungs, vs vehicle alone-treated mice, day 31, 'up to') is 2.5-3 log. The “Microsomes (% remaining) Human” value in series [5] worked out at 82%.
`CC1(COc2ccc(-c3ccc(OC(F)(F)F)cc3)cc2)Cn2cc([N+](=O)[O-])nc2O1` (centres unmarked) [Compound 12, 2-methyl-6-nitro-2-({[4′-(trifluoromethoxy)[1,1′-biphenyl]-4-yl]oxy}methyl)-2,3-dihydroimidazo[2,1-b][1,3]oxazole] showed a melting point of 209 to 211 °C. For the same molecule, in series [1], the IC50 stood at 9.4 µg/mL (≈ 21.6 µM). The “In vivo efficacy vs PA-824” value in the series with M. tuberculosis Erdman was 112. Besides, the IC50 in [3] came out at 0.016 µg/mL (≈ 0.0368 µM). In addition, the IC50 in [4] was 0.74 µg/mL (≈ 1.7 µM). Besides, the pIC50 in the series on VERO cells (CCL-81) was < 3.89.
In turn, `O=[N+]([O-])c1cn2c(n1)OCC(COCc1cccc(OC(F)(F)F)c1)C2` (centres unmarked) [Compound 71, 2-nitro-6-({[3-(trifluoromethoxy)benzyl]oxy}methyl)-6,7-dihydro-5H-imidazo[2,1-b][1,3]oxazine] gave a melting point of 60 to 61 °C. Moreover, in series [1], the IC50 was determined as 0.56 µg/mL (≈ 1.5 µM). In [6], the MIC came out at 0.33 µM (≈ 0.123 µg/mL). For the same molecule, in series [7], the MIC was 15 µM (≈ 5.6 µg/mL). In addition, the IC50 in series [3] was found to be 0.2 µg/mL (≈ 0.536 µM). For the same molecule, the IC50 in series [4] came out at 0.65 µg/mL (≈ 1.74 µM). In addition, in the series on VERO cells (CCL-81), the pIC50 was < 3.89.
The molecule `CC1(COCc2ccc(OC(F)(F)F)cc2)Cn2cc([N+](=O)[O-])nc2O1` (centres unmarked) [Compound 25, 2-methyl-6-nitro-2-({[4-(trifluoromethoxy)benzyl]oxy}methyl)-2,3-dihydroimidazo[2,1-b][1,3]oxazole] registered a melting point of 110 to 111 °C. Moreover, the IC50 in [1] turned out to be 0.24 µg/mL (≈ 0.643 µM). The “In vivo efficacy vs PA-824” value in the series with M. tuberculosis Erdman was 0.025. In addition, the IC50 in series [3] was found to be 0.029 µg/mL (≈ 0.0777 µM). In series [4], the IC50 is 0.22 µg/mL (≈ 0.589 µM). Moreover, the pIC50 in the series with VERO cells (CCL-81) was < 3.89.
